Reference: ChEMBL document CHEMBL3885861, “Open TG-GATES”

Species: Rattus norvegicus
Assay: Open TG-GATES - Regimen: Daily Repeat
Assay type: toxicity, organism-based, Sprague-Dawley
Design: regimen Daily Repeat, gender Male, age 6 weeks
Conditions: in vivo, po, 300 mg/kg, route gavage, dose level Middle; for APTT / Bas / Eos / Fbg / Hb / Ht / Lym / MCH / MCHC / MCV / Mono / Neu / PT / Plat / RBC / Ret / WBC: tissue Blood; for KIDNEY_L / KIDNEY_R / KIDNEY_TOTAL: tissue Kidney; for LIVER: tissue Liver; for A/G / ALP / ALT / AST / BUN / CRE / Ca / Cl / DBIL / GLC / IP / K / LDH / Na / PL / RALB / TBIL / TC / TG / TP / gamma-GTP: tissue Plasma

## C[C@H]1O[C@H](O[C@H]2[C@H](O)[C@@H](O)[C@@H](O[C@H]3[C@H](O)[C@@H](O)C(O)O[C@@H]3CO)O[C@@H]2CO)[C@H](O)[C@@H](O)[C@@H]1N[C@H]1C=C(CO)[C@@H](O)[C@H](O)[C@H]1O (some centres not stated) [ACARBOSE]
72 h, time 3 day
  TERMINAL_BW: 230.6 g
  APTT: 16.3 s
  Bas: 0.2%
  Eos: 1%
  Fbg: 299.4 mg/dL
  Hb: 13.6 g/dL
  Ht: 41%
  Lym: 76.6%
  MCH: 21 pg
  MCHC: 33.3%
  MCV: 63 fL
  Mono: 3%
  Neu: 18.4%
  PT: 13 s
  Plat: 120.6 x10_4/uL
  RBC: 650.8 x10_4/ul
  Ret: 7.2%
  WBC: 104.1 x10_2/uL
  KIDNEY_L: 1.1 g
  KIDNEY_R: 1.1 g
  KIDNEY_TOTAL: 2.1 g
  LIVER: 11.2 g
  A/G: 0.9
  ALP: 1565.8 IU/L
  ALT: 39.4 IU/L
  AST: 67.2 IU/L
  BUN: 12.6 mg/dL
  CRE: 0.2 mg/dL
  Ca: 10.7 mg/dL
  Cl: 103 meq/L
  DBIL: 0.01 mg/dL
  GLC: 170.8 mg/dL
  IP: 8.2 mg/dL
  K: 3.9 meq/L
  LDH: 89.6 IU/L
  Na: 140.4 meq/L
  PL: 148.4 mg/dL
  RALB: 2.6 g/dL
  TBIL: 0.06 mg/dL
  TC: 81 mg/dL
  TG: 98 mg/dL
  TP: 5.5 g/dL
  gamma-GTP: 1.2 IU/L
[…], time 7 day
  TERMINAL_BW: 272.1 g
  APTT: 17.2 s
  Bas: 0%
  Eos: 1%
  Fbg: 323 mg/dL
  Hb: 14.1 g/dL
  Ht: 41.7%
  Lym: 74.6%
  MCH: 21.1 pg
  MCHC: 33.8%
  MCV: 62.4 fL
  Mono: 2.6%
  Neu: 21%
  PT: 13.1 s
  Plat: 128.3 x10_4/uL
  RBC: 669.4 x10_4/ul
  Ret: 6.1%
  WBC: 95.8 x10_2/uL
  KIDNEY_L: 1.1 g
  KIDNEY_R: 1.1 g
  KIDNEY_TOTAL: 2.3 g
  LIVER: 12.7 g
  A/G: 0.9
  ALP: 1607 IU/L
  ALT: 50 IU/L
  AST: 77.2 IU/L
  BUN: 16.4 mg/dL
  CRE: 0.2 mg/dL
  Ca: 10.9 mg/dL
  Cl: 104.2 meq/L
  DBIL: 0.012 mg/dL
  GLC: 183.6 mg/dL
  IP: 7.5 mg/dL
  K: 4.2 meq/L
  LDH: 80.6 IU/L
  Na: 142 meq/L
  PL: 147.6 mg/dL
  RALB: 2.6 g/dL
  TBIL: 0.054 mg/dL
  TC: 75 mg/dL
  TG: 91.6 mg/dL
  TP: 5.7 g/dL
  gamma-GTP: 1 IU/L
[…], time 14 day
  TERMINAL_BW: 332.7 g
  APTT: 23.4 s
  Bas: 0%
  Eos: 0.8%
  Fbg: 272.2 mg/dL
  Hb: 14.8 g/dL
  Ht: 44%
  Lym: 78.8%
  MCH: 21 pg
  MCHC: 33.7%
  MCV: 62.2 fL
  Mono: 2%
  Neu: 17.8%
  PT: 13.2 s
  Plat: 126.6 x10_4/uL
  RBC: 706.8 x10_4/ul
  Ret: 5%
  WBC: 105.8 x10_2/uL
  KIDNEY_L: 1.2 g
  KIDNEY_R: 1.3 g
  KIDNEY_TOTAL: 2.5 g
  LIVER: 15.1 g
  A/G: 0.8
  ALP: 1744.6 IU/L
  ALT: 39 IU/L
  AST: 69.8 IU/L
  BUN: 16.2 mg/dL
  CRE: 0.2 mg/dL
  Ca: 10.6 mg/dL
  Cl: 105 meq/L
  DBIL: 0.01 mg/dL
  GLC: 186 mg/dL
  IP: 6.8 mg/dL
  K: 4.1 meq/L
  LDH: 95.2 IU/L
  Na: 142 meq/L
  PL: 141.6 mg/dL
  RALB: 2.7 g/dL
  TBIL: 0.05 mg/dL
  TC: 67.4 mg/dL
  TG: 135.4 mg/dL
  TP: 5.9 g/dL
  gamma-GTP: 1 IU/L
[…], time 28 day
  TERMINAL_BW: 401.7 g
  APTT: 20.2 s
  Bas: 0%
  Eos: 1%
  Fbg: 282.8 mg/dL
  Hb: 15.3 g/dL
  Ht: 44.4%
  Lym: 79.6%
  MCH: 20.2 pg
  MCHC: 34.4%
  MCV: 58.6 fL
  Mono: 2%
  Neu: 16%
  PT: 13.7 s
  Plat: 95.8 x10_4/uL
  RBC: 757.4 x10_4/ul
  Ret: 2.2%
  WBC: 88.5 x10_2/uL
  KIDNEY_L: 1.4 g
  KIDNEY_R: 1.3 g
  KIDNEY_TOTAL: 2.7 g
  LIVER: 16.3 g
  A/G: 0.8
  ALP: 1170.4 IU/L
  ALT: 46.4 IU/L
  AST: 70.8 IU/L
  BUN: 15.6 mg/dL
  CRE: 0.2 mg/dL
  Ca: 10.8 mg/dL
  Cl: 105 meq/L
  DBIL: 0.012 mg/dL
  GLC: 190.8 mg/dL
  IP: 5.9 mg/dL
  K: 4.1 meq/L
  LDH: 82.6 IU/L
  Na: 142.2 meq/L
  PL: 141.6 mg/dL
  RALB: 2.7 g/dL
  TBIL: 0.048 mg/dL
  TC: 65.4 mg/dL
  TG: 154.8 mg/dL
  TP: 6 g/dL
  gamma-GTP: 1 IU/L
